Assay results from patent US12404262B2 (priority 2021, dated 2025).

Details: 1.0% DMSO, 24-hour incubation at ambient temperature, maximum theoretical 100 μM; for pH 2 solubility: 0.1N HCl, first value of the cell; for pH 7 solubility: 1×PBS buffer (pH 7.4), second value of the cell

Row | Compound | pH 2 solubility | pH 7 solubility
1 | CC(C)(C#Cc1ccc(-c2ccc(Cl)c3c(N(CCOP(=O)(O)O)S(C)(=O)=O)nn(CC(F)(F)F)c23)c([C@H](Cc2cc(F)cc(F)c2)NC(=O)Cn2nc(C(F)(F)F)c3c2C(F)(F)[C@@H]2C[C@H]32)n1)S(C)(=O)=O [Compound 19, 2-(N-(4-chloro-7-(2-((S)-1-(2-((3bS,4aR)-5,5-difluoro-3-(trifluoromethyl)-3b,4,4a,5-tetrahydro-1H-cyclopropa[3,4]cyclopenta[1,2-c]pyrazol-1-yl)acetamido)-2-(3,5-difluorophenyl)ethyl)-6-(3-methyl-3-(methylsulfonyl)but-1-yn-1-yl)pyridin-3-yl)-1-(2,2,2-trifluoroethyl)-1H-indazol-3-yl)methylsulfonamido)ethyl dihydrogen phosphate] | 1 μM | 100 μM
2 | CC(C)(C#Cc1ccc(-c2ccc(Cl)c3c(N(COC(=O)CCP(=O)(O)O)S(C)(=O)=O)nn(CC(F)(F)F)c23)c([C@H](Cc2cc(F)cc(F)c2)NC(=O)Cn2nc(C(F)(F)F)c3c2C(F)(F)[C@@H]2C[C@H]32)n1)S(C)(=O)=O [Compound 21, (3-((N-(4-chloro-7-(2-((S)-1-(2-((3bS,4aR)-5,5-difluoro-3-(trifluoromethyl)-3b,4,4a,5-tetrahydro-1H-cyclopropa[3,4]cyclopenta[1,2-c]pyrazol-1-yl)acetamido)-2-(3,5-difluorophenyl)ethyl)-6-(3-methyl-3-(methylsulfonyl)but-1-yn-1-yl)pyridin-3-yl)-1-(2,2,2-trifluoroethyl)-1H-indazol-3-yl)methylsulfonamido)methoxy)-3-oxopropyl)phosphonic acid] | 86 μM | 1 μM
3 | CC(C)(C#Cc1ccc(-c2ccc(Cl)c3c(N(CCO)S(C)(=O)=O)nn(CC(F)(F)F)c23)c([C@H](Cc2cc(F)cc(F)c2)NC(=O)Cn2nc(C(F)(F)F)c3c2C(F)(F)[C@@H]2C[C@H]32)n1)S(C)(=O)=O [Compound 18, N—((S)-1-(3-(4-chloro-3-(N-(2-hydroxyethyl)methylsulfonamido)-1-(2,2,2-trifluoroethyl)-1H-indazol-7-yl)-6-(3-methyl-3-(methylsulfonyl)but-1-yn-1-yl)pyridin-2-yl)-2-(3,5-difluorophenyl)ethyl)-2-((3bS,4aR)-5,5-difluoro-3-(trifluoromethyl)-3b,4,4a,5-tetrahydro-1H-cyclopropa[3,4]cyclopenta[1,2-c]pyrazol-1-yl)acetamide] | 1/1 μM | 1/1 μM
4 | CN(C(=O)N(c1nn(CC(F)(F)F)c2c(-c3ccc(C#CC(C)(C)S(C)(=O)=O)nc3[C@H](Cc3cc(F)cc(F)c3)NC(=O)Cn3nc(C(F)(F)F)c4c3C(F)(F)[C@@H]3C[C@H]43)ccc(Cl)c12)S(C)(=O)=O)C(C)(C)C(=O)OCOP(=O)(O)O [Compound 85, (phosphonooxy)methyl 2-(3-(4-chloro-7-(2-((S)-1-(2-((3bS,4aR)-5,5-difluoro-3-(trifluoromethyl)-3b,4,4a,5-tetrahydro-1H-cyclopropa[3,4]cyclopenta[1,2-c]pyrazol-1-yl)acetamido)-2-(3,5-difluorophenyl)ethyl)-6-(3-methyl-3-(methylsulfonyl)but-1-yn-1-yl)pyridin-3-yl)-1-(2,2,2-trifluoroethyl)-1H-indazol-3-yl)-1-methyl-3-(methylsulfonyl)ureido)-2-methylpropanoate] | 5 μM | 65 μM
5 | CC(C)(C#Cc1ccc(-c2ccc(Cl)c3c(N(C(=O)NC(COP(=O)(O)O)COP(=O)(O)O)S(C)(=O)=O)nn(CC(F)(F)F)c23)c([C@H](Cc2cc(F)cc(F)c2)NC(=O)Cn2nc(C(F)(F)F)c3c2C(F)(F)[C@@H]2C[C@H]32)n1)S(C)(=O)=O [Compound 38, 2-(3-(4-chloro-7-(2-((S)-1-(2-((3bS,4aR)-5,5-difluoro-3-(trifluoromethyl)-3b,4,4a,5-tetrahydro-1H-cyclopropa[3,4]cyclopenta[1,2-c]pyrazol-1-yl)acetamido)-2-(3,5-difluorophenyl)ethyl)-6-(3-methyl-3-(methylsulfonyl)but-1-yn-1-yl)pyridin-3-yl)-1-(2,2,2-trifluoroethyl)-1H-indazol-3-yl)-3-(methylsulfonyl)ureido)propane-1,3-diyl bis(dihydrogen phosphate)] | 10 μM | 16 μM
6 | CC(C)(C#Cc1ccc(-c2ccc(Cl)c3c(N(COP(=O)(O)O)S(C)(=O)=O)nn(CC(F)(F)F)c23)c([C@H](Cc2cc(F)cc(F)c2)NC(=O)Cn2nc(C(F)(F)F)c3c2C(F)(F)[C@@H]2C[C@H]32)n1)S(C)(=O)=O [Compound 23, (N-(4-chloro-7-(2-((S)-1-(2-((3bS,4aR)-5,5-difluoro-3-(trifluoromethyl)-3b,4,4a,5-tetrahydro-1H-cyclopropa[3,4]cyclopenta[1,2-c]pyrazol-1-yl)acetamido)-2-(3,5-difluorophenyl)ethyl)-6-(3-methyl-3-(methylsulfonyl)but-1-yn-1-yl)pyridin-3-yl)-1-(2,2,2-trifluoroethyl)-1H-indazol-3-yl)methylsulfonamido)methyl dihydrogen phosphate] | 6 μM | 100 μM

Further lines, results first:

Row | pH 2 solubility | pH 7 solubility | Compound
7 | 1 μM | 99 μM | C[C@H](OC(=O)N(c1nn(CC(F)(F)F)c2c(-c3ccc(C#CC(C)(C)S(C)(=O)=O)nc3[C@H](Cc3cc(F)cc(F)c3)NC(=O)Cn3nc(C(F)(F)F)c4c3C(F)(F)[C@@H]3C[C@H]43)ccc(Cl)c12)S(C)(=O)=O)[C@H](C)OP(=O)(O)O [Compound 96, (2S,3S)-3-(phosphonooxy)butan-2-yl (4-chloro-7-(2-((S)-1-(2-((3bS,4aR)-5,5-difluoro-3-(trifluoromethyl)-3b,4,4a,5-tetrahydro-1H-cyclopropa[3,4]cyclopenta[1,2-c]pyrazol-1-yl)acetamido)-2-(3,5-difluorophenyl)ethyl)-6-(3-methyl-3-(methylsulfonyl)but-1-yn-1-yl)pyridin-3-yl)-1-(2,2,2-trifluoroethyl)-1H-indazol-3-yl)(methylsulfonyl)carbamate]
8 | 1/1 μM | 1/1 μM | C[C@H](OC(=O)N(c1nn(CC(F)(F)F)c2c(-c3ccc(C#CC(C)(C)S(C)(=O)=O)nc3[C@H](Cc3cc(F)cc(F)c3)NC(=O)Cn3nc(C(F)(F)F)c4c3C(F)(F)[C@@H]3C[C@H]43)ccc(Cl)c12)S(C)(=O)=O)C(=O)O [Compound 115, (S)-2-(((4-chloro-7-(2-((S)-1-(2-((3bS,4aR)-5,5-difluoro-3-(trifluoromethyl)-3b,4,4a,5-tetrahydro-1H-cyclopropa[3,4]cyclopenta[1,2-c]pyrazol-1-yl)acetamido)-2-(3,5-difluorophenyl)ethyl)-6-(3-methyl-3-(methylsulfonyl)but-1-yn-1-yl)pyridin-3-yl)-1-(2,2,2-trifluoroethyl)-1H-indazol-3-yl)(methylsulfonyl)carbamoyl)oxy)propanoic acid]
9 | 1 μM | 100 μM | CC(C)(C#Cc1ccc(-c2ccc(Cl)c3c(N(C(=O)OCCCCOP(=O)(O)O)S(C)(=O)=O)nn(CC(F)(F)F)c23)c([C@H](Cc2cc(F)cc(F)c2)NC(=O)Cn2nc(C(F)(F)F)c3c2C(F)(F)[C@@H]2C[C@H]32)n1)S(C)(=O)=O [Compound 102, 4-(phosphonooxy)butyl (4-chloro-7-(2-((S)-1-(2-((3bS,4aR)-5,5-difluoro-3-(trifluoromethyl)-3b,4,4a,5-tetrahydro-1H-cyclopropa[3,4]cyclopenta[1,2-c]pyrazol-1-yl)acetamido)-2-(3,5-difluorophenyl)ethyl)-6-(3-methyl-3-(methylsulfonyl)but-1-yn-1-yl)pyridin-3-yl)-1-(2,2,2-trifluoroethyl)-1H-indazol-3-yl)(methylsulfonyl)carbamate]
10 | 1 μM | 100 μM | CC(C)(C#Cc1ccc(-c2ccc(Cl)c3c(N(C(=O)OCCOCCOCCOCCOP(=O)(O)O)S(C)(=O)=O)nn(CC(F)(F)F)c23)c([C@H](Cc2cc(F)cc(F)c2)NC(=O)Cn2nc(C(F)(F)F)c3c2C(F)(F)[C@@H]2C[C@H]32)n1)S(C)(=O)=O [Compound 110, 2-(2-(2-(2-(phosphonooxy)ethoxy)ethoxy)ethoxy)ethyl (4-chloro-7-(2-((S)-1-(2-((3bS,4aR)-5,5-difluoro-3-(trifluoromethyl)-3b,4,4a,5-tetrahydro-1H-cyclopropa[3,4]cyclopenta[1,2-c]pyrazol-1-yl)acetamido)-2-(3,5-difluorophenyl)ethyl)-6-(3-methyl-3-(methylsulfonyl)but-1-yn-1-yl)pyridin-3-yl)-1-(2,2,2-trifluoroethyl)-1H-indazol-3-yl)(methylsulfonyl)carbamate]
11 | 1 μM | 15 μM | CN(C(=O)N(c1nn(CC(F)(F)F)c2c(-c3ccc(C#CC(C)(C)S(C)(=O)=O)nc3[C@H](Cc3cc(F)cc(F)c3)NC(=O)Cn3nc(C(F)(F)F)c4c3C(F)(F)[C@@H]3C[C@H]43)ccc(Cl)c12)S(C)(=O)=O)[C@@H](CC(=O)O)C(=O)O [Compound 71, N-((4-chloro-7-(2-((S)-1-(2-((3bS,4aR)-5,5-difluoro-3-(trifluoromethyl)-3b,4,4a,5-tetrahydro-1H-cyclopropa[3,4]cyclopenta[1,2-c]pyrazol-1-yl)acetamido)-2-(3,5-difluorophenyl)ethyl)-6-(3-methyl-3-(methylsulfonyl)but-1-yn-1-yl)pyridin-3-yl)-1-(2,2,2-trifluoroethyl)-1H-indazol-3-yl)(methylsulfonyl)carbamoyl)-N-methyl-L-aspartic acid]
12 | 3/3 μM | 3/3 μM | COC(=O)N(c1nn(CC(F)(F)F)c2c(-c3ccc(C#CC(C)(C)S(C)(=O)=O)nc3[C@H](Cc3cc(F)cc(F)c3)NC(=O)Cn3nc(C(F)(F)F)c4c3C(F)(F)[C@@H]3C[C@H]43)ccc(Cl)c12)S(C)(=O)=O [Compound 89, methyl (4-chloro-7-(2-((S)-1-(2-((3bS,4aR)-5,5-difluoro-3-(trifluoromethyl)-3b,4,4a,5-tetrahydro-1H-cyclopropa[3,4]cyclopenta[1,2-c]pyrazol-1-yl)acetamido)-2-(3,5-difluorophenyl)ethyl)-6-(3-methyl-3-(methylsulfonyl)but-1-yn-1-yl)pyridin-3-yl)-1-(2,2,2-trifluoroethyl)-1H-indazol-3-yl)(methylsulfonyl)carbamate]
